Results taken from US8309552B2, “Immunomodulating heterocyclic compounds” (Medigene AG, priority 2003, dated 2012).

The compounds below were run against T1, CD80-CD28 interaction (Homo sapiens, UniProt P33681) (assay: Homogenous Time Resolved Fluorescence (HTRF) assay, cell free). Conditions: cell-free HTRF, compound concentration series 100 μM-1.7 nM, 4 hours at room temperature; read-out: Activity (EC50 in the HTRF assay).
T1 sequence (P33681 35-242 limits assumed): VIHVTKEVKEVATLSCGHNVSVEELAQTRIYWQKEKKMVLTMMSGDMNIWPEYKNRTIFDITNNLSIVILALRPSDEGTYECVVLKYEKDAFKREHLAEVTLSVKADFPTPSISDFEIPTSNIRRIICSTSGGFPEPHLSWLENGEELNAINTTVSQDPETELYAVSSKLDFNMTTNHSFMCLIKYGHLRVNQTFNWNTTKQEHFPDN
Format: binding
Description: Homogenous Time Resolved Fluorescence Assay
The examples described above were tested in a cell free Homogenous Time Resolved Fluorescence (HTRF) assay to determine their activity as inhibitors of the CD80-CD28 interaction.
In the assay, europium and allophycocyanin (APC) are associated with CD28 and CD80 indirectly (through antibody linkers) to form a complex, which brings the europium and APC into close proximity to generate a signal. The complex comprises the following six proteins: fluorescent label 1, linker antibody 1, CD28 fusion protein, CD80 fusion protein, linker antibody 2, and fluorescent label 2. The table below describes these reagents in greater detail.
On formation of the complex, europium and APC are brought into proximity and a signal is generated.
Non-specific interaction was measured by substituting a mouse Fab fragment (C215) for the CD80 mouse Fab fragment fusion protein (1.9 μg/ml). The assay was carried out in black 384 well plates in a final volume of 30 μl. Assay buffer: 50 mM Tris-HCl, 150 mM NaCl pH7.8, containing 0.1% BSA (w/v) added just prior to use.
Compounds were added to the above reagents in a concentration series ranging between 100 μM-1.7 nM. The reaction was incubated for 4 hours at room temperature. Dual measurements were made using a Wallac Victor 1420 Multilabel Counter. First measurement: excitation 340 nm, emission 665 nm, delay 50 μs, window time 200 μs. second measurement: excitation 340 nm, emission 615 nm, delay 50 μs, window time 200 μs. Counts were automatically corrected for fluorescence crossover, quenching and background. The EC50 activities of compounds tested are recorded as: EC50:*=>10 μM,**=1-10 μM,***=<1 μM.

Row | SMILES | EC50 [µM]
1 | O=C(NCCOc1ccccc1)c1ccc(-n2[nH]c3c(nnc4ccccc43)c2=O)cc1 [Example 63] | 1 to 10
2 | O=C(NCc1ccc(OC(F)(F)F)cc1)c1ccc(-n2[nH]c3c(nnc4ccccc43)c2=O)cc1 [Example 64] | 1 to 10
3 | O=C(NCCNc1cccc2ccccc12)c1ccc(-n2[nH]c3c(nnc4ccccc43)c2=O)cc1 [Example 65] | 1 to 10
4 | CCOC(=O)C(C)NC(=O)c1ccc(-n2[nH]c3c(nnc4ccccc43)c2=O)cc1 (centres unmarked) [Example 66] | 1 to 10
5 | CCCCOCCCNC(=O)c1ccc(-n2[nH]c3c(nnc4ccccc43)c2=O)cc1 [Example 67] | < 1
6 | CCN1CCCC1CNC(=O)c1ccc(-n2[nH]c3c(nnc4ccccc43)c2=O)cc1 (centres unmarked) [Example 69] | < 1
7 | CC[C@@H](C)NC(=O)c1ccc(-n2[nH]c3c(nnc4ccccc43)c2=O)cc1 [Example 70] | < 1
8 | CC[C@H](C)NC(=O)c1ccc(-n2[nH]c3c(nnc4ccccc43)c2=O)cc1 [Example 71] | < 1
9 | CCC(CC)NC(=O)c1ccc(-n2[nH]c3c(nnc4ccccc43)c2=O)cc1 [Example 72] | 1 to 10
10 | O=C(NCCCCc1ccccc1)c1ccc(-n2[nH]c3c(nnc4ccccc43)c2=O)cc1 [Example 73] | 1 to 10
11 | CCOC(=O)CCC(NC(=O)c1ccc(-n2[nH]c3c(nnc4ccccc43)c2=O)cc1)C(=O)OCC (centres unmarked) [Example 74] | 1 to 10
12 | CC(NC(=O)c1ccc(-n2[nH]c3c(nnc4ccccc43)c2=O)cc1)C1CCCCC1 (centres unmarked) [Example 75] | 1 to 10
13 | O=C(NCCc1ccccn1)c1ccc(-n2[nH]c3c(nnc4ccccc43)c2=O)cc1 [Example 76] | 1 to 10
14 | CCSCCNC(=O)c1ccc(-n2[nH]c3c(nnc4ccccc43)c2=O)cc1 [Example 77] | < 1
15 | O=C(NC1CC1)c1ccc(-n2[nH]c3c(nnc4ccccc43)c2=O)cc1 [Example 78] | 1 to 10
16 | O=C(NCCCN1CCCC1)c1ccc(-n2[nH]c3c(nnc4ccccc43)c2=O)cc1 [Example 79] | < 1

Row | SMILES | EC50 [µM]
17 | O=C(NC1CCCN(Cc2ccccc2)C1)c1ccc(-n2[nH]c3c(nnc4ccccc43)c2=O)cc1 (centres unmarked) [Example 80] | < 1
18 | CCN(CC)CCCC(C)NC(=O)c1ccc(-n2[nH]c3c(nnc4ccccc43)c2=O)cc1 (centres unmarked) [Example 81] | < 1
19 | CC(C)CCNC(=O)c1ccc(-n2[nH]c3c(nnc4ccccc43)c2=O)cc1 [Example 82] | 1 to 10
20 | O=C(NC1CCCC1)c1ccc(-n2[nH]c3c(nnc4ccccc43)c2=O)cc1 [Example 83] | 1 to 10
21 | CCCNC(=O)c1ccc(-n2[nH]c3c(nnc4ccccc43)c2=O)cc1 [Example 84] | 1 to 10
22 | CC(C)(C)CCNC(=O)c1ccc(-n2[nH]c3c(nnc4ccccc43)c2=O)cc1 [Example 85] | 1 to 10
23 | O=C(NC1CCN(Cc2ccccc2)CC1)c1ccc(-n2[nH]c3c(nnc4ccccc43)c2=O)cc1 [Example 86] | < 1
24 | O=C(NCC1CCCCCC1)c1ccc(-n2[nH]c3c(nnc4ccccc43)c2=O)cc1 [Example 87] | > 10
25 | CC(NC(=O)c1ccc(-n2[nH]c3c(nnc4ccccc43)c2=O)cc1)C(C)(C)C (centres unmarked) [Example 88] | 1 to 10
26 | CC(C)C(C)NC(=O)c1ccc(-n2[nH]c3c(nnc4ccccc43)c2=O)cc1 (centres unmarked) [Example 89] | < 1
27 | O=C(NC1CCCC1OCc1ccccc1)c1ccc(-n2[nH]c3c(nnc4ccccc43)c2=O)cc1 (centres unmarked) [Example 90] | 1 to 10
28 | CC(C)(C)OC(=O)NCCCCNC(=O)c1ccc(-n2[nH]c3c(nnc4ccccc43)c2=O)cc1 [Example 91] | < 1
29 | CCCCCCCC(C)NC(=O)c1ccc(-n2[nH]c3c(nnc4ccccc43)c2=O)cc1 (centres unmarked) [Example 92] | > 10
30 | COC(=O)C(NC(=O)c1ccc(-n2[nH]c3c(nnc4ccccc43)c2=O)cc1)C(C)C (centres unmarked) [Example 93] | 1 to 10
31 | O=C(NC1CCN(Cc2ccccc2)C1)c1ccc(-n2[nH]c3c(nnc4ccccc43)c2=O)cc1 (centres unmarked) [Example 94] | < 1
32 | O=C(NCCc1cccnc1)c1ccc(-n2[nH]c3c(nnc4ccccc43)c2=O)cc1 [Example 95] | < 1
